The values below come from patent publication US20250017915A1, “METHOD OF TREATING CANCER ASSOCIATED WITH RAS MUTATION” (The Board of Trustees of the University of Illinois, priority 2021, published 2025).

Assay [1] concerns Pdx1-Cre×LSL-Kras^G12D×LSL-TP53^R172H+/+ (KPPC) mice. Kind of assay: KPPC mouse model of extremely aggressive PDAC, late intervention. It counts as in vivo. To be noted: 5 mg/kg daily IP. The text has this:
(§1) Nongenic B6 (Wild Type), P48-Cre×LSL-Kras^G12D (KC), Pdx1-Cre×LSL-Kras^G12D×LSL-TP53^R172H+/− (KPC), and Pdx1-Cre×LSL-Kras^G12D×LSL-TP53^R172H+/+ (KPPC) mice were generated as described previously (24). […] Mice were euthanized at 6 months of age and tissues collected for analysis. […] KPC mice were sacrificed when moribund or showing clear signs of health decline e.g. fur loss, weight loss, or lethargy, or for non-survival studies at the fixed endpoint shown in the number of days after enrollment. For studies involving KPPC mice, animals were enrolled either when developing a 0.5 cm, palpable tumor or at 4 weeks of age. […] For euthanasia, animals were deeply anesthetized with isoflurane until unresponsive to toe tap and/or agonal breathing was observed. Thoracotomy served as the primary method of euthanasia and exsanguination the secondary method. For all mouse studies, mice were age matched within 2 weeks and males and females randomized at a 50:50 ratio.
We next conducted a late intervention study using the Pdx1-Cre×LSL-Kras^G12D×LSL-TP53^R172H+/+ (KPPC) model of extremely aggressive PDAC. In our colony, KPPC mice have a median survival of 43 days (N=12) and develop extensive PDAC as early as two weeks of age. We, therefore, enrolled mice as described either when they developed a 0.5 cm tumor or at 4 weeks of age and placed them into one of two treatment groups (N=6/group).

In assay [2] the test system is Pdx1-Cre×LSL-Kras^G12D×LSL-TP53^R172H+/− (KPC) mice. Kind of assay: KPC mouse model of invasive PDAC, survival and endpoint tissue analysis. It counts as in vivo. The settings on record: XP-524 5 mg/kg daily IP and/or anti-PD-1 200 μg.
Excerpt: as §1
Using these mice, we first conducted an early intervention study in which mice were allowed to develop overt PDAC for a minimum of 15 weeks, at which point 100% of mice in our colony develop focal PDAC. At this time, mice were then randomized at a 50:50 male to female ratio into one of two treatment groups (N=7/group). […]

Assay [3] relates to Panc1 cells. As to the kind of experiment: Cell viability, MTT assay. The settings on record: Panc1, increasing concentrations, with or without 1 μM SGC-CBP30, 48 hours. It counts as cell-based, human. The method, then:
(§2) For cell growth assays, a fixed number of serum starved tumor cells were seeded into each well of a 24 well plate to reach 10% confluence, the subsequent percent confluence evaluated every 4 hours until the control group reached 100% confluence. For cell viability assays, 2,000-4,000 cells were seeded into each well of a 96-well plate in serum free DMEM. After 16 hours, media/drug was added and cells cultured for 72 hours. At this time, we added 20 ul of a 5 mg/ml 3-(4,5-Dimethyl-2-thiazolyl)-2,5-diphenyl-2H-tetrazolium bromide (MTT) solution to each well […]. After two hours, media was aspirated and crystals dissolved in DMSO and 570 nm absorbance determined by plate reader.
After 48 hours, we examined changes in cell viability via MTT assay.
For orientation: Formazan colour is commonly taken as a measure of viable cells.

In assay [4] the test system is Panc1 cells. As to the kind of experiment: Cell growth assay (percent confluence). It counts as cell-based, human. The settings on record: Panc1, 1 μM each drug, until DMSO-treated cells reached 100% confluence. The method, then: as §2
Assay [5] deals with Panc1 cells. Kind of assay: Western blot, Panc1. Type of assay: cell-based, human. As to the method:
Cell or tissue lysates were lysed in RIPA buffer (Cell Signaling) followed by sonication. Equal amounts of protein (15-50 μg) were mixed with loading dye, boiled for 8 min, separated on a 4-20% denaturing SDS-PAGE gel and transferred to a PVDF membrane. The membrane was blocked in 5% milk/TBS/0.1% Tween for one hour and incubated with antibodies against pRB, pMEK1, MEK1, pERK1/2, ERK1/2, (Cell Signaling, Danvers, MA), H3K27ac (Active Motif, Carlsbad, CA), KRAS (Novus Bio, Saint Charles, MO), BRD4, EP300 (abcam, Cambridge, MA), or GAPDH (Santa Cruz Biotech, Santa Cruz, CA). The membrane was washed with TBS-0.1% Tween and then incubated with HRP conjugated secondary antibody (Cell Signaling) at room temperature for one hour and rewashed. Protein bands were visualized by an enhanced chemiluminescence method (Thermo Fischer, Waltham, MA) and resolved digitally per the manufacturer's specifications.
(§3) Using these same lysates, we also evaluated the association between BRD4 and EP300/CBP by immunoprecipitation.
On the technique in general: Immunoblotting shows a protein as a band on a membrane.

In another assay the test system is BRD4 and EP300/CBP. Kind of assay: Immunoprecipitation of BRD4 and EP300/CBP, Panc1. It counts as cell-based, human. To be noted: Panc1, 1 μM. The method, then:
For immunoprecipitation, cell lysates were collected using IP buffer (25 mM Tris-HCl pH 7.5, 150 mM NaCl, 1 mM EDTA, 0.1% NP-40 and 5% glycerol) with a protease and phosphatase inhibitory cocktail (Cell Signaling), and cell extracts were incubated overnight with the respective antibodies followed by incubation with protein A or G agarose beads for 4 h at 4° C. After washing 5-7 times with lysis buffer, immunocomplexes were resolved using SDS-PAGE and visualized by western blot. All antibodies were compared with isotype specific IgG controls to affirm specificity. All experiments were performed in triplicate unless otherwise specified.
as §3

Assay [6] has as its system Panc1 cells. As to the kind of experiment: RNA sequencing and gene set enrichment analysis. It counts as cell-based, human. To be noted: Panc1, 1 μM, 24 hours, RNA sequencing. The method, then:
After 24 hours RNA was extracted using the RNeasy Plus Mini Kit (Qiagen, Hilden, Germany) per the manufacturer's instructions. Quality control, sequencing, and data analysis were performed by Novogene.

As for `CCS(=O)(=O)Nc1cc(-c2cn(C)c3c(=O)[nH]ccc23)cc2c1ccn2C(C)(c1ccccn1)c1ccccn1` [XP-524], the figures for the median survival post-enrollment in assay [1] and in assay [2] were 50 days and 108 days, respectively.
Consider `Cc1sc2c(c1C)C(c1ccc(Cl)cc1)=N[C@@H](CC(=O)OC(C)(C)C)c1nnc(C)n1-2` [JQ-1], for which the cell viability entry with Panc1 cells [3] was “reduction in cell viability”. For the same compound, the cell growth entry in the assay on Panc1 cells [4] was “modest growth suppression”. Moreover, the “histone acetylation (H3K27ac)” value in the assay with Panc1 cells [5] is recorded as “compensatory increase in histone acetylation”. The “co-precipitation of BRD4 and EP300/CBP” value in the assay with BRD4 and EP300/CBP was “modestly reduced co-precipitation of BRD4 and EP300/CBP”. Also, in the assay on Panc1 cells [6], the “KRAS signaling and cell cycle pathways” value is “modest suppression of KRAS and cell cycle pathways”.
As for `COc1ccc(CCc2nc3cc(-c4c(C)noc4C)ccc3n2C[C@H](C)N2CCOCC2)cc1Cl` [SGC-CBP30], the cell growth entry with Panc1 cells [4] is given as “marginal effect on cell growth”.
